Reference: paper PMC8536830 (Current Biology, 2021)
Values joined by “and” are separate entries in the source; they are usually repeats but may differ in a detail not shown here. Equal values may be shown once.

Experiments:
Assay type in all cases: cell-based, C. elegans
LGC-51/52 [1] = biological target: T1, LGC-51/52 (Caenorhabditis elegans, UniProt Q9NA62+X5LVB0); assay: Two-electrode voltage clamp, antagonist inhibitory dose response in Xenopus oocytes expressing LGC-51/52
Experimental: (§1) We also investigated the antagonist profiles of three potential antagonists: mecamylamine; spiperone; and picrotoxin. These antagonists target different binding sites and have different specificity for vertebrate receptors.
(§2) Defolliculated Xenopus laevis oocytes were obtained from EcoCyte Bioscience (Dortmund, Germany) and maintained in ND96 (in mM: 96 NaCl, 1 MgCl2, 5 HEPES, 1.8 CaCl2, 2 KCl) solution at 16°C for 3-5 days.
5'-capped cRNA was synthesized in vitro using the T3 mMessage mMachine transcription kit according to manufacturer’s protocol (Thermo Fischer Scientific, CA, USA). […]
(§3) Two-electrode voltage clamp recordings were carried out using the Robocyte2 recording system or a manual TEVC set up, using an OC-725D amplifier (Multi Channel Systems, Reutlingen, Germany) and paired with a custom-made recording chamber and agar bridges from reference and bath electrodes. […] Data was recorded using WinWCP or RoboCyte2 control software, manual data was filtered at 10 Hz.
Dose response curves were calculated from the peak current during a 10 s agonist stimulation in ND96 solution, with a 60 s ND96 wash in between doses. […] Normalized dose response data was fitted to a nonlinear curve using a four parameters variable slope and the EC50 and Hill slope was calculated. […] Kinetic measurements were calculated from a 60 s agonist perfusion. […]

LGC-56 [2] = biological target: T2, LGC-56 (Caenorhabditis elegans, UniProt Q10052); assay: Two-electrode voltage clamp, antagonist inhibitory dose response in Xenopus oocytes expressing LGC-56; conditions: for IC50: Xenopus oocytes, TEVC, agonist constant at its EC50, Hill equation, three-parameter slope; for Block of LGC-56 currents by antagonist: agonist at EC50
Experimental: as §1, §2
(§4) 5'-capped cRNA was synthesized in vitro using the T3 mMessage mMachine transcription kit according to manufacturer’s protocol (Thermo Fischer Scientific, CA, USA). RNA was then purified using the GeneJET RNA purification kit (Thermo Fischer Scientific, CA, USA) prior to cRNA injection. Defolliculated Xenopus oocytes were placed individually into 96 well plates and injected with 50nL of 500ng/μL RNA using the Roboinject system (Multi Channel Systems GmbH, Reutlingen, Germany). When two constructs were injected the total RNA concentration remained 500ng/μL, with a 1:1 ratio of the components. Injected oocytes were incubated at 16°C in ND96 until the day of recording, typically between 3-5 days post injection.
(§5) Two-electrode voltage clamp recordings were carried out using the Robocyte2 recording system or a manual TEVC set up, using an OC-725D amplifier (Multi Channel Systems, Reutlingen, Germany) and paired with a custom-made recording chamber and agar bridges from reference and bath electrodes. Glass electrodes were pulled on a P-1000 Micropipette Puller (Sutter, Ca, USA) with a resistance ranging from 0.7-2 MΩ, pipettes, containing AgCl wires, were backfilled with a 3 M KCl solution for manual recordings and 1.5M KCl and 1 M acetic acid for Robocyte2 recordings. Oocytes were clamped at −60mV unless stated otherwise. Continuous recordings were taken during application of agonists and antagonists at 500 Hz. Data was recorded using WinWCP or RoboCyte2 control software, manual data was filtered at 10 Hz.
(§6) Dose response curves were calculated from the peak current during a 10 s agonist stimulation in ND96 solution, with a 60 s ND96 wash in between doses. Data was gathered over at least two occasions, using different batches of oocytes. Normalized dose response data was fitted to a nonlinear curve using a four parameters variable slope and the EC50 and Hill slope was calculated. All further recordings were carried out with the agonist at its EC50 concentration unless stated otherwise. Ion selectivity was determined using a voltage ramp protocol of 20mV/s ranging from −80mV to +60mV in the presence or absence of the primary agonist in three different solutions: ND96, NMDG (Na^+ free) and Na Gluconate (low Cl^-) solutions. Normalized ramp curves were fitted to a linear regression line and the x intercept was compared between solutions to calculate an average Erev from 4-5 oocytes. Antagonist dose response curves were calculated from the peak current during a 10 s agonist + antagonist stimulation in ND96 solution, with the agonist concentration remaining constant. Repeated agonist stimulus protocols were carried out by measuring the peak current during a 10 s agonist stimulation at three wash intervals, 10 s, 30 s and 60 s. Kinetic measurements were calculated from a 60 s agonist perfusion. Python scripts for TEVC analysis can be found at on GitHub at hiris25/TEVC-analysis-scripts and on Zenodo https://doi.org/10.5281/zenodo.5095181.
(§7) Dose response and antagonist response curves were generated using custom-built python scripts (key resources table), which combined data from multiple recordings and normalized data by calculating I/Imax for each oocyte. Normalized mean, SD and n numbers where then imported into GraphPad where data was plotted and EC50 or IC50 values were calculated by fitting to the Hill equation using either three or four parameter slopes to obtain the highest degree of fit.

LGC-54 [3] = biological target: T3, LGC-54 (Caenorhabditis elegans, UniProt O17041); assay: Two-electrode voltage clamp, antagonist inhibitory dose response in Xenopus oocytes expressing LGC-54; conditions: for IC50: Xenopus oocytes, TEVC, agonist constant at its EC50, Hill equation, three-parameter slope; for Block of LGC-54 currents by antagonist: agonist at EC50
Experimental: as §1, §2, §4, §5, §6, §7

LGC-51/52 [4] = biological target: T1, LGC-51/52; assay: Two-electrode voltage clamp, agonist-evoked currents in Xenopus oocytes co-expressing LGC-51 and LGC-52; conditions: for Agonist-induced peak current of LGC-51/52 heteromer compared with LGC-52: 1 mM TYR or DA; for EC50: Xenopus oocytes co-expressing LGC-51 and LGC-52, TEVC, Hill equation with variable slope, read-out: EC50, agonist-evoked dose response, LGC-51/52 heteromer
Experimental: as §2, §4, §5
as §6, with “Normalized ramp curves were fitted to a linear regression line and the x intercept was compared between solutions to calculate an average Erev from 4-5 oocytes.” left out, “Repeated agonist stimulus protocols were carried out by measuring the peak current during a 10 s agonist stimulation at three wash intervals, 10 s, 30 s and 60 s.” left out, “Python scripts for TEVC analysis can be found at on GitHub at hiris25/TEVC-analysis-scripts and on Zenodo https://doi.org/10.5281/zenodo.5095181.” left out

LGC-56 [5] = biological target: T2, LGC-56; assay: Two-electrode voltage clamp, agonist-evoked currents in Xenopus oocytes expressing LGC-56; conditions: for EC50: Xenopus oocytes, TEVC, current normalized to Imax, Hill equation with variable slope, read-out: EC50, agonist-evoked dose response, LGC-56; for Channel activation in ligand screen, LGC-56: ligands screened at 100 μM, oocytes clamped at −60 mV
Excerpt: (§8) We aimed to deorphanize C. elegans LGICs without known ligands, focusing on 5 genes in the putative monoamine-gated group: lgc-50; lgc-51; lgc-52; lgc-54; and lgc-56 (previously named ggr-3). Using heterologous overexpression in Xenopus oocytes and two-electrode voltage clamp recordings, we measured channel activity evoked by application of 11 monoamines and other neurotransmitters.
as §2, §4, §5
as §6, with “Python scripts for TEVC analysis can be found at on GitHub at hiris25/TEVC-analysis-scripts and on Zenodo https://doi.org/10.5281/zenodo.5095181.” left out

LGC-52 = LGC-52 (Caenorhabditis elegans, UniProt Q9NA62); assay: Two-electrode voltage clamp, agonist-evoked currents in Xenopus oocytes expressing LGC-52; conditions: for EC50: Xenopus oocytes, TEVC, current normalized to Imax, Hill equation with variable slope, read-out: EC50, agonist-evoked dose response, LGC-52; for Channel activation in ligand screen, LGC-52: ligands screened at 100 μM, oocytes clamped at −60 mV
Excerpt: as §8, §2, §4, §5
as §6, with “Python scripts for TEVC analysis can be found at on GitHub at hiris25/TEVC-analysis-scripts and on Zenodo https://doi.org/10.5281/zenodo.5095181.” left out

LGC-54 [6] = biological target: T3, LGC-54; assay: Two-electrode voltage clamp, agonist-evoked currents in Xenopus oocytes expressing LGC-54; conditions: for EC50: Xenopus oocytes, TEVC, current normalized to Imax, Hill equation with variable slope, read-out: EC50, agonist-evoked dose response, LGC-54; for Channel activation in ligand screen, LGC-54: ligands screened at 100 μM, oocytes clamped at −60 mV
Excerpt: as §8, §2, §4, §5, §6
Dose response and antagonist response curves were generated using custom-built python scripts (key resources table), which combined data from multiple recordings and normalized data by calculating I/Imax for each oocyte.

LGC-50 = biological target: T4, LGC-50 (Caenorhabditis elegans, UniProt P41849); assay: Two-electrode voltage clamp, agonist-evoked currents in Xenopus oocytes expressing LGC-50; conditions: ligands screened at 100 μM, oocytes clamped at −60 mV
T4 construct: lgc-50 ORF F […]; expressed in transfected cells; host or cells: Xenopus laevis oocytes injected with cRNA (plasmid pJML002, KSM: lgc-50 cDNA)
T4 sequence (P41849 20-491): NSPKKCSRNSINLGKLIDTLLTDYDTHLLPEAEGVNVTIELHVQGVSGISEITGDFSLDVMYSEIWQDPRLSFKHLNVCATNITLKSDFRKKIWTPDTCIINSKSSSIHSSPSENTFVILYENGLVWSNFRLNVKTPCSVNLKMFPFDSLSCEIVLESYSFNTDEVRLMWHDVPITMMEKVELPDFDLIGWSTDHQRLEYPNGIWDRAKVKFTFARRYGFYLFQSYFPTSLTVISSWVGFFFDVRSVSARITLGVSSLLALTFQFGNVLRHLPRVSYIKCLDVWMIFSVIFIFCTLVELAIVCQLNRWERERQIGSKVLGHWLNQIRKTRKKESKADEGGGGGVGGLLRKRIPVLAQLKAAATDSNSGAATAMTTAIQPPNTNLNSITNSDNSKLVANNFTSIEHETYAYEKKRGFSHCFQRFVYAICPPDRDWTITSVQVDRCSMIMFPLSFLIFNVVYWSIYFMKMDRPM
Excerpt: as §8, §2
5'-capped cRNA was synthesized in vitro using the T3 mMessage mMachine transcription kit according to manufacturer’s protocol (Thermo Fischer Scientific, CA, USA). RNA was then purified using the GeneJET RNA purification kit (Thermo Fischer Scientific, CA, USA) prior to cRNA injection. […]
as §3
Dose response curves were calculated from the peak current during a 10 s agonist stimulation in ND96 solution, with a 60 s ND96 wash in between doses. […] Normalized dose response data was fitted to a nonlinear curve using a four parameters variable slope and the EC50 and Hill slope was calculated. […] Ion selectivity was determined using a voltage ramp protocol of 20mV/s ranging from −80mV to +60mV in the presence or absence of the primary agonist in three different solutions: ND96, NMDG (Na^+ free) and Na Gluconate (low Cl^-) solutions. […] Antagonist dose response curves were calculated from the peak current during a 10 s agonist + antagonist stimulation in ND96 solution, with the agonist concentration remaining constant. […] Kinetic measurements were calculated from a 60 s agonist perfusion. […]

T1 sequence (X5LVB0 entry or part of it): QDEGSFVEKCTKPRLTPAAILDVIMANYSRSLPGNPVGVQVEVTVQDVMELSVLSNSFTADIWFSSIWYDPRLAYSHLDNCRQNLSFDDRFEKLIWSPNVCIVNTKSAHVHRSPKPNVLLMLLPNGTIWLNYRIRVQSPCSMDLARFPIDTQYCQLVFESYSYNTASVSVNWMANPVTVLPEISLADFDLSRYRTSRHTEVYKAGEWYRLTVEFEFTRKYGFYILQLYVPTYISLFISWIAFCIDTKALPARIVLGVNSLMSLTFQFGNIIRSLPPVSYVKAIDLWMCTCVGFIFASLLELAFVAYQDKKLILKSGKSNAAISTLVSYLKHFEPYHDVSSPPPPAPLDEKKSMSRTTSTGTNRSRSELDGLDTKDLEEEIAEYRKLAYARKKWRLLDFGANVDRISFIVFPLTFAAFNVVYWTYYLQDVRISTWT
T1 sequence (Q9NA62 entry or part of it): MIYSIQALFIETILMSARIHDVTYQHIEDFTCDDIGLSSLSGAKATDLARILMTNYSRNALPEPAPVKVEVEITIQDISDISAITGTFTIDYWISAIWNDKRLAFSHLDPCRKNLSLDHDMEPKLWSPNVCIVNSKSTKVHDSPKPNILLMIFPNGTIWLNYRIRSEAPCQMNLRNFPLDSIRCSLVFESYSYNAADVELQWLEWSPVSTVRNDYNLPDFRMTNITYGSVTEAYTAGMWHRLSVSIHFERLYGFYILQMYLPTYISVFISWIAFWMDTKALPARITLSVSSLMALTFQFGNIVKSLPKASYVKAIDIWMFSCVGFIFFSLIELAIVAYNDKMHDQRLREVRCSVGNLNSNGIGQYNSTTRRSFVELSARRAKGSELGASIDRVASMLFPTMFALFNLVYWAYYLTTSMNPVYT
LGC-52, sequence (Q9NA62 entry or part of it): as above
T2 sequence (Q10052 entry or part of it): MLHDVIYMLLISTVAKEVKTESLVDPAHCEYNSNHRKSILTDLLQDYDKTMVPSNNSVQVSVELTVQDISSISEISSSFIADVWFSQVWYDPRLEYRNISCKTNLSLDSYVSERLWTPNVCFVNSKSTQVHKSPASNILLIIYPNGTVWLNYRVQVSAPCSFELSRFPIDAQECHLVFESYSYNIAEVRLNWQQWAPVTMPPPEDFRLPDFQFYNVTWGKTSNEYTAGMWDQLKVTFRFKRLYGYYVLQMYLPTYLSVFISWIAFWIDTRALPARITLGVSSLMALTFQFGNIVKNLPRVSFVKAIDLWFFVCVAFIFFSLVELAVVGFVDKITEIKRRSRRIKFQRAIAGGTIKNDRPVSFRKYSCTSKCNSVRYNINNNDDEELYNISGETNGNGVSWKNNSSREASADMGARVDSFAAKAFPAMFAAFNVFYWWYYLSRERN
T3 sequence (O17041 entry or part of it): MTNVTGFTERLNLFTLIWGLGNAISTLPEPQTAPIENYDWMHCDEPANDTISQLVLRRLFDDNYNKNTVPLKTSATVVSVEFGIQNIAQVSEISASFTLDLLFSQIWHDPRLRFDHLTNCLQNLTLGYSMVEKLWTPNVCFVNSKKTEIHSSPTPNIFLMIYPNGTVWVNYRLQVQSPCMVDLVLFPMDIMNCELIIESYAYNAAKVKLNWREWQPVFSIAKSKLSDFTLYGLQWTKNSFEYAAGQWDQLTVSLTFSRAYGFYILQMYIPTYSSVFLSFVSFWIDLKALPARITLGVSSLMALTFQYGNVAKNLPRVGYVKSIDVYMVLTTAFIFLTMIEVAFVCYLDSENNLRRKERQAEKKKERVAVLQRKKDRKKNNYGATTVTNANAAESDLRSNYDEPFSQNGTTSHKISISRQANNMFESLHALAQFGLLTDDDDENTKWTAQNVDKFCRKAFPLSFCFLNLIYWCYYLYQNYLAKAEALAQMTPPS

Compound: O=C(CCCN1CCC2(CC1)C(=O)NCN2c1ccccc1)c1ccc(F)cc1 [Spiperone, spiperone]
- IC50 (LGC-51/52 [1]; Xenopus oocytes, TEVC, agonist constant at its EC50, Hill equation, three-parameter slope): 170 µM
- Block of LGC-51/52 currents by antagonist (LGC-51/52 [1]; agonist at EC50): partial block
- IC50 (LGC-56 [2]): 127 µM
- Block of LGC-56 currents by antagonist (LGC-56 [2]): partial block
- IC50 (LGC-54 [3]): 81 µM
- Block of LGC-54 currents by antagonist (LGC-54 [3]): partial block

Compound: NCCc1ccc(O)c(O)c1 [dopamine]
- Agonist-induced peak current of LGC-51/52 heteromer compared with LGC-52 (LGC-51/52 [4]): no significant effect
- EC50 (LGC-51/52 [4]): 0.81 µM
- EC50 (LGC-56 [5]): 642 µM
- Channel activation in ligand screen, LGC-56 (LGC-56 [5]): activated
- EC50 (LGC-52): 0.51 µM
- Channel activation in ligand screen, LGC-52 (LGC-52): activated
- EC50 lower for dopamine than tyramine, LGC-52 (LGC-52; ratio of EC50 values): 100 fold
- EC50 (LGC-54 [6]): 18 µM
- Channel activation in ligand screen, LGC-54 (LGC-54 [6]): activated

Compound: CNC1(C)C2CCC(C2)C1(C)C (stereo not drawn) [mecamylamine]
- IC50 (LGC-56 [2]): 1 µM
- Block of LGC-56 currents by antagonist (LGC-56 [2]): partially blocked
- IC50 (LGC-54 [3]): 114 µM and > 100 µM
- Block of LGC-54 currents by antagonist (LGC-54 [3]): only a partial block

Compound: NCC(O)c1ccc(O)cc1 (stereo not drawn) [octopamine]
- Response of LGC-56 at very high concentration (LGC-56 [5]; 1 mM): small response

Compound: NCCc1c[nH]c2ccccc12 [tryptamine]
- Channel gating in ligand screen, LGC-50 (LGC-50): gated

Compound: NCCc1ccc(O)cc1 [tyramine]
- Agonist-induced peak current of LGC-51/52 heteromer compared with LGC-52 (LGC-51/52 [4]): significantly higher
- EC50 (LGC-51/52 [4]): 4 µM
- EC50 (LGC-56 [5]): 70 µM
- Channel activation in ligand screen, LGC-56 (LGC-56 [5]): activated
- EC50 (LGC-52): 54 µM
- Channel activation in ligand screen, LGC-52 (LGC-52): activated
- EC50 (LGC-54 [6]): 13 µM
- Channel activation in ligand screen, LGC-54 (LGC-54 [6]): activated

Compound: picrotoxin
- IC50 (LGC-56 [2]): 59 µM
- Block of LGC-56 currents by antagonist (LGC-56 [2]): large inhibition of currents
- IC50 (LGC-54 [3]): 43 µM
- Block of LGC-54 currents by antagonist (LGC-54 [3]): large inhibition of currents
